# Assay results published in patent US11932595B2, “VDR-silent vitamin D derivative as inhibitors of SREBP and pharmaceutical use thereof” (KYOTO UNIVERSITY, priority 2020, dated 2024).
# Entries after “also recorded” stand apart in the source; their conditions may differ.
# Molecular target: T1, endogenous SREBP-2 and SCAP (Cricetulus griseus, UniProt P97260)
# T1 construct: Western blot analysis of endogenous SREBP-2 and SCAP; endogenous in cells; host or cells: CHO-K1
# T1 sequence (P97260 1-1276): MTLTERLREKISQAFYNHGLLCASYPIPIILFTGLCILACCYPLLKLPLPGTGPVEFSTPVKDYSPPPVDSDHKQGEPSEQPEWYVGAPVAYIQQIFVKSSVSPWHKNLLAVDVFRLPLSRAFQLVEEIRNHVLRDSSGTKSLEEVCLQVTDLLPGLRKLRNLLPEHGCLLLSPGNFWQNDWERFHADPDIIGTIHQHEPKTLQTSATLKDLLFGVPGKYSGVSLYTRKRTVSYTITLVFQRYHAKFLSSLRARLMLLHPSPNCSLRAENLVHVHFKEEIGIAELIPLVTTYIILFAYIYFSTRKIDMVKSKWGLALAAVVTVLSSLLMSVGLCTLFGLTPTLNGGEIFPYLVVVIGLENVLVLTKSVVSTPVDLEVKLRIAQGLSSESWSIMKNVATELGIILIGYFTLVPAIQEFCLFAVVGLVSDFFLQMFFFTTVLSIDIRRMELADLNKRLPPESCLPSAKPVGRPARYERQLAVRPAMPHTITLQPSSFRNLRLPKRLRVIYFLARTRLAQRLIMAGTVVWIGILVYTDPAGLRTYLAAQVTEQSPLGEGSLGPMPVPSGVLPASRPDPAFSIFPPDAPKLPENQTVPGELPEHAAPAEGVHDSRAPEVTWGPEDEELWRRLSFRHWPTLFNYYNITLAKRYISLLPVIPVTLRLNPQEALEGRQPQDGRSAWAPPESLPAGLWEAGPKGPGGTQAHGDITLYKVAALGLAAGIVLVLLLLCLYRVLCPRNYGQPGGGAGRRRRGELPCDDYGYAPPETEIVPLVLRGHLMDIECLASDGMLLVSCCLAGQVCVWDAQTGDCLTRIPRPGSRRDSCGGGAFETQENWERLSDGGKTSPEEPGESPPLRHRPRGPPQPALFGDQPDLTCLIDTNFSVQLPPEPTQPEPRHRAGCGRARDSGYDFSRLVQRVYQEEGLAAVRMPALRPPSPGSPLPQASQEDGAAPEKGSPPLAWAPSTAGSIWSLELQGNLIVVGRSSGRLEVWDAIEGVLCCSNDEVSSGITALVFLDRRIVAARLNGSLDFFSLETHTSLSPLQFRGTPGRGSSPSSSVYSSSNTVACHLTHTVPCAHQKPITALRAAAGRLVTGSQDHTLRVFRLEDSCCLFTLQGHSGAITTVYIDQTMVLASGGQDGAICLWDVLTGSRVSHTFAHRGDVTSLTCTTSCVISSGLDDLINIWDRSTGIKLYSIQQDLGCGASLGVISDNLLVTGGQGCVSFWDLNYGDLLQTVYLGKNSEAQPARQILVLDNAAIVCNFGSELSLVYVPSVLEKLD
# T1 sequence (Q60429 1-1139 partner): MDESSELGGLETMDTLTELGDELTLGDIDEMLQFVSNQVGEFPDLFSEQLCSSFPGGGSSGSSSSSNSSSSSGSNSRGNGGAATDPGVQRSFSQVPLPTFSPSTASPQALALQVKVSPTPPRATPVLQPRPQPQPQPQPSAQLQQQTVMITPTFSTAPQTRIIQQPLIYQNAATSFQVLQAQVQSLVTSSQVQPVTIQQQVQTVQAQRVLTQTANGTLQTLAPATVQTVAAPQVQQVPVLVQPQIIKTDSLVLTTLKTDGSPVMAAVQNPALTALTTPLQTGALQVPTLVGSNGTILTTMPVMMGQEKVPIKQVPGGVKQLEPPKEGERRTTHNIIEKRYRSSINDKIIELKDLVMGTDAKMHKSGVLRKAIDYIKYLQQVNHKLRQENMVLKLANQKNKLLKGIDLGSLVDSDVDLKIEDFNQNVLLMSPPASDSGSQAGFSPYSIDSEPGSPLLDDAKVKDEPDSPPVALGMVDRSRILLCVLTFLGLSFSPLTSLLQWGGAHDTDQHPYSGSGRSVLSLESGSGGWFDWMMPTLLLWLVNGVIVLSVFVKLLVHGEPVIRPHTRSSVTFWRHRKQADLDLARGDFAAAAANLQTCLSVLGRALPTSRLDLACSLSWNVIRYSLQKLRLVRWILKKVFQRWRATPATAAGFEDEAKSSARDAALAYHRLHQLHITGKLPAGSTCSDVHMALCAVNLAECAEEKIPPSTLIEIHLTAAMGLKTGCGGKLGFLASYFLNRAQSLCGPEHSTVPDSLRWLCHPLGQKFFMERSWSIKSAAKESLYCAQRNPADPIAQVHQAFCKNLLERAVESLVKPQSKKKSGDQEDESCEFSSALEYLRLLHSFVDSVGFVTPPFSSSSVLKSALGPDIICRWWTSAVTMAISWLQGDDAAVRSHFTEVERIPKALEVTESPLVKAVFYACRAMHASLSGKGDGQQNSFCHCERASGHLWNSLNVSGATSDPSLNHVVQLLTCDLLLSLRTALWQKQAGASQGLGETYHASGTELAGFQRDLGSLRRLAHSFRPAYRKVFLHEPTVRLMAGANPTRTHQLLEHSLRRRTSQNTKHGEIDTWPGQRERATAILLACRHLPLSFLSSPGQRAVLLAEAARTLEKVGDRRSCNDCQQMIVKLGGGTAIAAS
# Test: Western blot analysis of endogenous SREBP-2 and SCAP in CHO-K1 cells
# Format: cell-based
# Settings: FIG. 6B; for protein levels of precursor and mature forms of SREBP-2 and of SCAP: CHO-K1 cells, lipid-free medium, 24 h
# Method: 25(OH)D3 and KK-052 decreased the protein levels of both precursor and mature forms of SREBP-2, as well as SCAP. (CHO-K1 cells were treated with the compound in a lipid-free medium for 24 h); (C) Western blot analysis of SCAP: CHO-K1 cells expressing FLAG-tagged SCAP were treated with the compound in a lipid-free medium for 24 h and immunoblots were performed with an anti-FLAG antibody.
# The effects of KK-052 (50) on SREBP and SCAP by gene reporter assay and Western blot analysis were verified. […] Overall, the results were consistent with the effects of KK-052 in vivo.
SMILES,protein levels of precursor and mature forms of SREBP-2 and of SCAP,effect on endogenous SREBP and SCAP levels at 1 μM (1 μM concentration),protein levels of precursor and mature forms of SREBP-2 and of SCAP (listed as KK-052)
"C=C1CC[C@H](O)C/C1=C/C=C1\CCC[C@]2(C)[C@@H]([C@H](C)CCCC(C)(C)O)CC[C@@H]12 [25(OH)D3, 25-hydroxyvitamin D3, reference compound]",decreased,,
"C[C@H](CCC(F)(F)C(C)(C)O)[C@H]1CC[C@H]2/C(=C/Cn3nnnc3-c3ccccc3)CCC[C@]12C [Compound 50, (R)-3,3-Difluoro-2-methyl-6-{(1R,3aS,7aR,E)-7a-methyl-4-[2-(5-phenyl-1H-tetrazol-1-yl)ethylidene]octahydro-1H-inden-1-yl}heptan-2-ol]",,less evident,decreased; also recorded: decreasing the level
